Reference: PubChem BioAssay AID248 (DTP/NCI, 2004)
Several values for one entry are separate records, joined by “and”; a condition that tells them apart may be missing. Equal entries are not always repeated. Inconclusive results and toxic doses are left out.

System: L1210 leukemia ip in BDF1 mice, survival T/C
Test: NCI In Vivo Anticancer Drug Screen. Data for tumor model L1210 Leukemia (intraperitoneal) in B6D2F1 (BDF1) mice
Conditions: endpoint: mean survival time, higher = longer survival
Summary of the method: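 Tumor cells were implanted, animals were treated, and survival was followed. The result divides the treated measurement by the vehicle-control measurement.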

For `CCN(CC)CCNc1ccc(C)c2sc3ccccc3c(=O)c12`, the T/C (dose: 6.25 mg/kg/injection, schedule: Q01DX009 (ip), vehicle: saline) was 117 % of control and 118 % of control, the T/C (dose: 8.08 mg/kg/injection, schedule: Q01DX Z (ip), vehicle: carboxymethylcellulose (CMC)) was 96 % of control and the T/C (dose: 10.0 mg/kg/injection, schedule: Q01DX Z (ip), vehicle: other) was 95 % of control. For the same molecule, the T/C (dose: 12.0 mg/kg/injection, schedule: Q01DX006 (iv), vehicle: saline) was 98 % of control, the T/C (dose: 12.0 mg/kg/injection, schedule: Q01DX Z (im), vehicle: saline) was 98 % of control and the T/C (dose: 12.0 mg/kg/injection, schedule: Q01DX Z (ip), vehicle: saline) was 101 % of control. For the same molecule, the T/C (dose: 12.0 mg/kg/injection, schedule: Q01DX Z (sc), vehicle: saline) was 98 % of control, the T/C (dose: 12.5 mg/kg/injection, schedule: Q01DX005 (ip), vehicle: Klucel (hydroxypropylcellulose) (HPC)) was 96 % of control and 97 % of control and the T/C (dose: 12.5 mg/kg/injection, schedule: Q01DX005 (ip), vehicle: water) was 101 % of control. For the same molecule, the T/C (dose: 13.0 mg/kg/injection, schedule: Q01DX Z (oral), vehicle: carboxymethylcellulose (CMC)) was 122 % of control, the T/C (dose: 16.17 mg/kg/injection, schedule: Q01DX Z (ip), vehicle: carboxymethylcellulose (CMC)) was 104 % of control and the T/C (dose: 18.0 mg/kg/injection, schedule: Q01DX Z (ip), vehicle: carboxymethylcellulose (CMC)) was 98 % of control. For the same molecule, the T/C (dose: 18.0 mg/kg/injection, schedule: Q01DX Z (ip), vehicle: methylcellulose (MC)) was 107 % of control, the T/C (dose: 20.0 mg/kg/injection, schedule: Q01DX Z (ip), vehicle: carboxymethylcellulose (CMC)) was 100 % of control and 109 % of control and the T/C (dose: 20.0 mg/kg/injection, schedule: Q01DX Z (oral), vehicle: carboxymethylcellulose (CMC)) was 112 % of control. For the same molecule, the T/C (dose: 24.0 mg/kg/injection, schedule: Q01DX Z (im), vehicle: saline) was 103 % of control, the T/C (dose: 24.0 mg/kg/injection, schedule: Q01DX Z (ip), vehicle: saline) was 101 % of control and the T/C (dose: 24.0 mg/kg/injection, schedule: Q01DX Z (sc), vehicle: saline) was 98 % of control. The T/C (dose: 25.0 mg/kg/injection, schedule: Q01DX005 (ip), vehicle: Klucel (hydroxypropylcellulose) (HPC)) was 103 % of control and 105 % of control, the T/C (dose: 25.0 mg/kg/injection, schedule: Q01DX005 (ip), vehicle: water) was 112 % of control and the T/C (dose: 25.0 mg/kg/injection, schedule: Q01DX010 (ip), vehicle: saline) was 103 % of control and 113 % of control. The T/C (dose: 25.0 mg/kg/injection, schedule: Q01DX Z (ip), vehicle: carboxymethylcellulose (CMC)) was 109 % of control, the T/C (dose: 25.0 mg/kg/injection, schedule: Q04DX003 (ip), vehicle: Klucel (hydroxypropylcellulose) (HPC)) was 104 % of control and 110 % of control and the T/C (dose: 25.0 mg/kg/injection, schedule: Q04DX003 (ip), vehicle: saline) was 100 % of control. For the same molecule, the T/C (dose: 25.0 mg/kg/injection, schedule: Q04DX003 (ip), vehicle: water) was 101 % of control, the T/C (dose: 25.88 mg/kg/injection, schedule: Q01DX Z (ip), vehicle: carboxymethylcellulose (CMC)) was 98 % of control and the T/C (dose: 27.0 mg/kg/injection, schedule: Q01DX Z (ip), vehicle: carboxymethylcellulose (CMC)) was 108 % of control. The T/C (dose: 27.0 mg/kg/injection, schedule: Q01DX Z (ip), vehicle: methylcellulose (MC)) was 105 % of control, the T/C (dose: 30.0 mg/kg/injection, schedule: Q01DX Z (ip), vehicle: other) was 103 % of control and the T/C (dose: 32.35 mg/kg/injection, schedule: Q01DX Z (ip), vehicle: carboxymethylcellulose (CMC)) was 102 % of control and 103 % of control. For the same molecule, the T/C (dose: 39.0 mg/kg/injection, schedule: Q01DX Z (ip), vehicle: methylcellulose (MC)) was 164 % of control, the T/C (dose: 40.0 mg/kg/injection, schedule: Q01DX Z (ip), vehicle: carboxymethylcellulose (CMC)) was 114 % of control and 122 % of control and 123 % of control and the T/C (dose: 40.0 mg/kg/injection, schedule: Q01DX Z (ip), vehicle: methylcellulose (MC)) was 100 % of control. The T/C (dose: 43.13 mg/kg/injection, schedule: Q01DX Z (ip), vehicle: carboxymethylcellulose (CMC)) was 113 % of control, the T/C (dose: 48.0 mg/kg/injection, schedule: Q01DX Z (im), vehicle: saline) was 108 % of control and the T/C (dose: 48.0 mg/kg/injection, schedule: Q01DX Z (sc), vehicle: saline) was 101 % of control. The T/C (dose: 50.0 mg/kg/injection, schedule: Q01DX005 (ip), vehicle: Klucel (hydroxypropylcellulose) (HPC)) was 114 % of control, the T/C (dose: 50.0 mg/kg/injection, schedule: Q01DX005 (ip), vehicle: water) was 121 % of control and the T/C (dose: 50.0 mg/kg/injection, schedule: Q01DX Z (ip), vehicle: carboxymethylcellulose (CMC)) was 121 % of control. For the same molecule, the T/C (dose: 50.0 mg/kg/injection, schedule: Q04DX003 (ip), vehicle: Klucel (hydroxypropylcellulose) (HPC)) was 102 % of control and 119 % of control, the T/C (dose: 50.0 mg/kg/injection, schedule: Q04DX003 (ip), vehicle: saline) was 102 % of control and the T/C (dose: 50.0 mg/kg/injection, schedule: Q04DX003 (ip), vehicle: water) was 106 % of control. The T/C (dose: 58.0 mg/kg/injection, schedule: Q01DX Z (ip), vehicle: methylcellulose (MC)) was 222 % of control, the T/C (dose: 60.0 mg/kg/injection, schedule: Q01DX Z (ip), vehicle: methylcellulose (MC)) was 104 % of control and the T/C (dose: 75.0 mg/kg/injection, schedule: Q01DX001 (ip), vehicle: Klucel (hydroxypropylcellulose) (HPC)) was 117 % of control. The T/C (dose: 75.0 mg/kg/injection, schedule: Q01DX001 (ip), vehicle: saline) was 96 % of control and 101 % of control, the T/C (dose: 75.0 mg/kg/injection, schedule: Q01DX001 (ip), vehicle: water) was 108 % of control and the T/C (dose: 90.0 mg/kg/injection, schedule: Q01DX Z (ip), vehicle: methylcellulose (MC)) was 100 % of control. For the same molecule, the T/C (dose: 96.0 mg/kg/injection, schedule: Q01DX Z (im), vehicle: carboxymethylcellulose (CMC)) was 111 % of control, the T/C (dose: 96.0 mg/kg/injection, schedule: Q01DX Z (im), vehicle: saline) was 120 % of control and the T/C (dose: 96.0 mg/kg/injection, schedule: Q01DX Z (ip), vehicle: carboxymethylcellulose (CMC)) was 111 % of control. For the same molecule, the T/C (dose: 96.0 mg/kg/injection, schedule: Q01DX Z (ip), vehicle: saline) was 165 % of control, the T/C (dose: 96.0 mg/kg/injection, schedule: Q01DX Z (sc), vehicle: saline) was 115 % of control and the T/C (dose: 100.0 mg/kg/injection, schedule: Q01DX001 (ip), vehicle: saline) was 104 % of control. For the same molecule, the T/C (dose: 100.0 mg/kg/injection, schedule: Q01DX005 (ip), vehicle: water) was 157 % of control, the T/C (dose: 100.0 mg/kg/injection, schedule: Q01DX010 (ip), vehicle: saline) was 151 % of control and 166 % of control and the T/C (dose: 100.0 mg/kg/injection, schedule: Q04DX003 (ip), vehicle: saline) was 93 % of control and 116 % of control. For the same molecule, the T/C (dose: 129.4 mg/kg/injection, schedule: Q01DX Z (ip), vehicle: carboxymethylcellulose (CMC)) was 87 % of control, the T/C (dose: 140.0 mg/kg/injection, schedule: Q01DX Z (sc), vehicle: carboxymethylcellulose (CMC)) was 122 % of control and the T/C (dose: 145.0 mg/kg/injection, schedule: Q01DX001 (ip), vehicle: water) was 116 % of control. The T/C (dose: 150.0 mg/kg/injection, schedule: Q01DX001 (ip), vehicle: Klucel (hydroxypropylcellulose) (HPC)) was 107 % of control, the T/C (dose: 150.0 mg/kg/injection, schedule: Q01DX001 (ip), vehicle: saline) was 94 % of control and 104 % of control and the T/C (dose: 150.0 mg/kg/injection, schedule: Q01DX001 (ip), vehicle: water) was 120 % of control. The T/C (dose: 200.0 mg/kg/injection, schedule: Q01DX001 (ip), vehicle: saline) was 110 % of control, the T/C (dose: 200.0 mg/kg/injection, schedule: Q01DX009 (ip), vehicle: saline) was 105 % of control and 110 % of control and the T/C (dose: 200.0 mg/kg/injection, schedule: Q01DX010 (ip), vehicle: saline) was 93 % of control and 103 % of control. The T/C (dose: 200.0 mg/kg/injection, schedule: Q01DX Z (oral), vehicle: saline) was 104 % of control, the T/C (dose: 200.0 mg/kg/injection, schedule: Q04DX003 (ip), vehicle: Klucel (hydroxypropylcellulose) (HPC)) was 176 % of control and 180 % of control and the T/C (dose: 200.0 mg/kg/injection, schedule: Q04DX003 (ip), vehicle: saline) was 117 % of control. The T/C (dose: 215.0 mg/kg/injection, schedule: Q01DX Z (im), vehicle: carboxymethylcellulose (CMC)) was 122 % of control, the T/C (dose: 215.0 mg/kg/injection, schedule: Q01DX Z (sc), vehicle: carboxymethylcellulose (CMC)) was 111 % of control and the T/C (dose: 217.0 mg/kg/injection, schedule: Q01DX001 (ip), vehicle: water) was 121 % of control. For the same molecule, the T/C (dose: 300.0 mg/kg/injection, schedule: Q01DX001 (ip), vehicle: saline) was 105 % of control, the T/C (dose: 300.0 mg/kg/injection, schedule: Q01DX001 (ip), vehicle: water) was 121 % of control and the T/C (dose: 320.0 mg/kg/injection, schedule: Q01DX Z (im), vehicle: carboxymethylcellulose (CMC)) was 100 % of control and 114 % of control. For the same molecule, the T/C (dose: 320.0 mg/kg/injection, schedule: Q01DX Z (sc), vehicle: carboxymethylcellulose (CMC)) was 102 % of control, the T/C (dose: 400.0 mg/kg/injection, schedule: Q01DX001 (ip), vehicle: saline) was 188 % of control and the T/C (dose: 480.0 mg/kg/injection, schedule: Q01DX Z (im), vehicle: carboxymethylcellulose (CMC)) was 90 % of control.
